Where a name gives a salt, the structure may show the parent alone. Read-outs that look alike come from different tables or passages of the source.
How the values were obtained:
[1] = hairless, guinea pig, in vivo
[2] = in seven days; a similarly done study (reference not given); cited from earlier work
[3] = I.V. dose of 3 mg/kg; cited from earlier work
[4] = for Css: one 50-MN array
[5] = MN + Solaraze® + 16% NTX·HCl, n=4

O=C1CC[C@@]2(O)[C@H]3Cc4ccc(O)c5c4[C@@]2(CCN3CC2CC2)[C@H]1O5 [NTX·HCl, naltrexone HCl]
total delivery of naltrexone [1]: 2.65 mg | fraction of the total drug applied delivered through the skin [2]: less than 5% | systemic dose AUC [3]: 546 ng/mL/h | delivered fraction of the dose ([4]; 2.65 mg of 80 mg NTX applied to the MN-treated area): less than 5% | Css ([4]; MN + 16% NTX·HCl (control, no Solaraze®), n=4): 3.4 ± 1.3 ng/mL | Tlag ([4]; MN + 16% NTX·HCl (no Solaraze®), n=4): 1.8 ± 1.5 h | duration of increased plasma levels (Css) ([4]; MN + Solaraze® + 16% NTX·HCl gel, n=4): seven | Tlag [4, 5]: 21.5 ± 12.6 h | Css [4, 5]: 7.0 ± 1.5 ng/mL | time at which NTX·HCl levels returned to baseline ([4]; control: one-time MN + 0.5 g 16% NTX·HCl, 6.7 cm^2, no Solaraze®): ≤ 60 h | flux corresponding to the steady-state concentration ([4]; from Css of 7.0 ng/ml, 6.7 cm^2 patch): approximately 16.14 nmol/cm^2/h

From paper PMC3377386 (Pharmaceutical Research, 2011)
